Where two headings read alike, the source gives them in different places.
Assays:
G. pulex [1] = system: G. pulex; set-up: method as in Meredith-Williams et al., 2012; conditions: ref Meredith-Williams et al., 2012; cited from earlier work
G. pulex [2] = conditions: in vivo
G. pulex [3] = conditions: cited from earlier work
G. pulex exoskeleton = conditions: both, Gammarus pulex, in vivo, pH 8.2
G. pulex [4] = assay: Re-examination of raw toxicokinetic data from Ashauer et al. (2010) using the OECD 305 modelling approach; conditions: 2010 re-modelled
Gammarus pulex = assay: Toxicokinetic exposure (48 h uptake, 48 h depuration) of radio-labelled pharmaceuticals, first-order one-compartment model (OECD 305); conditions: for BCF, Simultaneous BCF: kinetic BCF (k1/k2); for BCF, Simultaneous BCF / k2 (elimination rate constant), Simultaneous BCF / k1 (uptake rate constant), Simultaneous BCF: simultaneous method; for BCF, Sequential BCF a / BCF, Sequential BCF b: kinetic BCF; for BCF, Sequential BCF a / k1, Sequential BCF a / k2, Sequential BCF a: sequential using curve fitting method; for BCF, Sequential BCF b / k1, Sequential BCF b / k2, Sequential BCF b: sequential using linear regression; for k2 (elimination rate constant), Simultaneous BCF / k1 (uptake rate constant), Simultaneous BCF: 1 μg·L^− 1 (diclofenac, ibuprofen 10 μg·L^− 1), 15 °C, pH 8.2
[5] = Control wells without G. pulex: loss of compound by sorption to the walls of culture plates; type: physicochemical; conditions: control wells with exposure media only

SMILES	BCF, Sequential BCF (G. pulex [2]; Gammarus pulex)	BCF, Simultaneous BCF (G. pulex [2]; Gammarus pulex)	k1, Sequential BCF (G. pulex [2]; Gammarus pulex)	k1, Simultaneous BCF (G. pulex [2]; Gammarus pulex)	k2, Sequential BCF (G. pulex [2]; Gammarus pulex)	k2, Simultaneous BCF (G. pulex [2]; Gammarus pulex)	BAF (G. pulex [3]; in vivo)	other results
CNCCC(Oc1ccc(C(F)(F)F)cc1)c1ccccc1 (centres unmarked) [fluoxetine]	–	–	–	–	–	–	–	BCF (G. pulex [1]): 185,900
CCOP(=S)(OCC)Oc1cc(C)nc(C(C)C)n1 [Diazinon]	101 L kg^− 1	77 L kg^− 1	161 L kg^− 1 day^− 1	276 L kg^− 1 day^− 1	1.590 day^− 1	3.569 day^− 1	82	–
CNC(=C[N+](=O)[O-])NCCSCc1ccc(CN(C)C)o1 [Ranitidine, ranitidine]	–	–	–	–	–	–	–	Mean Compound Mass per Animal (G. pulex exoskeleton): 238 pg; Total Mass Compound on exoskeleton (G. pulex exoskeleton): 58 (n=1) pg
C=CC(=O)OCC [Ethylacrylate]	–	–	–	–	–	–	–	BAF (G. pulex [3]; ref Ashauer et al. (2010)): 87; BCF, Sequential BCF (G. pulex [4]; sequential method): 331 L kg^− 1; k1, Sequential BCF (G. pulex [4]; sequential method): 67 L kg^− 1 day^− 1; k2, Sequential BCF (G. pulex [4]; sequential method): 0.204 day^− 1; BCF, Simultaneous BCF (G. pulex [4]; simultaneous method): 69 L kg^− 1; k1, Simultaneous BCF (G. pulex [4]; simultaneous method): 110 L kg^− 1 day^− 1; k2, Simultaneous BCF (G. pulex [4]; simultaneous method): 1.594 day^− 1
O=C(O)Cc1ccccc1Nc1c(Cl)cccc1Cl [Diclofenac, diclofenac]	–	–	–	–	–	–	–	Maximum concentration sorbed to exoskeleton (G. pulex exoskeleton): 18%; Mean Compound Mass per Animal (G. pulex exoskeleton): 2070 pg; Total Mass Compound on exoskeleton (G. pulex exoskeleton): 368 (n=4) pg; BCF, Simultaneous BCF (Gammarus pulex): 14 L kg^− 1; BCF, Sequential BCF a (Gammarus pulex): 27 L kg^− 1; BCF, Sequential BCF b (Gammarus pulex): 21 L kg^− 1; k1, Sequential BCF a (Gammarus pulex): 0.253 L kg^− 1 day^− 1; k2, Sequential BCF a (Gammarus pulex): 0.009 day^− 1; k1, Sequential BCF b (Gammarus pulex): 0.269 L kg^− 1 day^− 1; k2, Sequential BCF b (Gammarus pulex): 0.013 day^− 1; k2 (elimination rate constant), Simultaneous BCF (Gammarus pulex): 0.020 day^− 1
CNC(=O)O/N=C/C(C)(C)SC [Aldicarb]	3 L kg^− 1	2 L kg^− 1	3 L kg^− 1 day^− 1	16 L kg^− 1 day^− 1	0.936 day^− 1	10.419 day^− 1	2	–
Clc1c(Cl)c(Cl)c(Cl)c(Cl)c1Cl [Hexachlorobenzene]	4160 L kg^− 1	2505 L kg^− 1	631 L kg^− 1 day^− 1	553 L kg^− 1 day^− 1	0.152 day^− 1	0.221 day^− 1	–	–
CNC(=O)Oc1cccc2c1OC(C)(C)C2 [Carbofuran]	72 L kg^− 1	68 L kg^− 1	10 L kg^− 1 day^− 1	10 L kg^− 1 day^− 1	0.140 day^− 1	0.146 day^− 1	65	–
Oc1cc(Cl)c(Cl)cc1Cl [2,4,5-Trichlorophenol]	8327 L kg^− 1	3729 L kg^− 1	1091 L kg^− 1 day^− 1	941 L kg^− 1 day^− 1	0.131 day^− 1	0.252 day^− 1	2635	–
CC(C)(C)NCC(O)c1cc(O)cc(O)c1 (centres unmarked) [Terbutaline, terbutaline]	–	–	–	–	–	–	–	BCF, Simultaneous BCF (Gammarus pulex): 12 L kg^− 1; BCF, Sequential BCF a (Gammarus pulex): 22 L kg^− 1; BCF, Sequential BCF b (Gammarus pulex): 19 L kg^− 1; k1, Sequential BCF a (Gammarus pulex): 0.135 L kg^− 1 day^− 1; k2, Sequential BCF a (Gammarus pulex): 0.006 day^− 1; k1, Sequential BCF b (Gammarus pulex): 0.117 L kg^− 1 day^− 1; k2, Sequential BCF b (Gammarus pulex): 0.006 day^− 1; k1 (uptake rate constant), Simultaneous BCF (Gammarus pulex): 0.136 L kg^− 1 day^− 1; k2 (elimination rate constant), Simultaneous BCF (Gammarus pulex): 0.011 day^− 1
CC(C)NCC(O)COc1cccc2ccccc12 (centres unmarked) [Propranolol, propranolol]	–	–	–	–	–	–	–	Mean Compound Mass per Animal (G. pulex exoskeleton): 336 pg; Total Mass Compound on exoskeleton (G. pulex exoskeleton): 44 (n=1) pg
Clc1cccc(Cl)c1Cl [1,2,3-Trichlorobenzene]	351 L kg^− 1	107 L kg^− 1	167 L kg^− 1 day^− 1	1142 L kg^− 1 day^− 1	0.475 day^− 1	10.648 day^− 1	191	–
Oc1ccc(Cl)cc1Cl [2,4-Dichlorophenol]	72,728 L kg^− 1	9050 L kg^− 1	750 L kg^− 1 day^− 1	600 L kg^− 1 day^− 1	0.010 day^− 1	0.066 day^− 1	4466	–
CCOC(=O)CC(SP(=S)(OC)OC)C(=O)OCC (centres unmarked) [Malathion]	212 L kg^− 1	120 L kg^− 1	80 L kg^− 1 day^− 1	86 L kg^− 1 day^− 1	0.378 day^− 1	0.721 day^− 1	114	–
CN(C)CCCN1c2ccccc2CCc2ccccc21 [Imipramine, imipramine]	–	–	–	–	–	–	–	loss by sorption to walls of exposure well ([5]; within 2 h): 27%; loss by sorption to walls of exposure well ([5]; within 48 h): 39%; Maximum concentration sorbed to exoskeleton (G. pulex exoskeleton): 3%; Mean Compound Mass per Animal (G. pulex exoskeleton): 1921 pg; Total Mass Compound on exoskeleton (G. pulex exoskeleton): 50 (n=2) pg; increase in BCF, sequential versus simultaneous method (Gammarus pulex; in vivo): > 10 fold; BCF, Simultaneous BCF (Gammarus pulex): 212 L kg^− 1; BCF, Sequential BCF a (Gammarus pulex): 3811 L kg^− 1; BCF, Sequential BCF b (Gammarus pulex): 4533 L kg^− 1; BCF on average between curve fitting and linear regression approaches (Gammarus pulex; sequential method): ~ 4200; k1, Sequential BCF a (Gammarus pulex): 1.361 L kg^− 1 day^− 1; k1, Sequential BCF b (Gammarus pulex): 1.360 L kg^− 1 day^− 1; k1 (uptake rate constant), Simultaneous BCF (Gammarus pulex): 1.408 L kg^− 1 day^− 1; k2 (elimination rate constant), Simultaneous BCF (Gammarus pulex): 0.007 day^− 1
COc1ccc(CC(C)NCC(O)c2ccc(O)c(NC=O)c2)cc1 (centres unmarked) [Formoterol, formoterol]	–	–	–	–	–	–	–	BCF, Simultaneous BCF (Gammarus pulex): 14 L kg^− 1; BCF, Sequential BCF a (Gammarus pulex): 18 L kg^− 1; BCF, Sequential BCF b (Gammarus pulex): 33 L kg^− 1; k1, Sequential BCF a (Gammarus pulex): 0.451 L kg^− 1 day^− 1; k2, Sequential BCF a (Gammarus pulex): 0.025 day^− 1; k1, Sequential BCF b (Gammarus pulex): 0.357 L kg^− 1 day^− 1; k2, Sequential BCF b (Gammarus pulex): 0.011 day^− 1; k1 (uptake rate constant), Simultaneous BCF (Gammarus pulex): 0.408 L kg^− 1 day^− 1; k2 (elimination rate constant), Simultaneous BCF (Gammarus pulex): 0.029 day^− 1
O=[N+]([O-])NC1=NCCN1Cc1ccc(Cl)nc1 [Imidacloprid]	13 L kg^− 1	7 L kg^− 1	2 L kg^− 1 day^− 1	2 L kg^− 1 day^− 1	0.175 day^− 1	0.265 day^− 1	7	–
CCCCCCCCn1sc(Cl)c(Cl)c1=O [Sea nine]	–	–	–	–	–	–	1732	BCF, Sequential BCF (G. pulex [2]): 7696 L kg^− 1; BCF, Simultaneous BCF (G. pulex [2]): 2491 L kg^− 1; k1, Sequential BCF (G. pulex [2]): 950 L kg^− 1 day^− 1; k1, Simultaneous BCF (G. pulex [2]): 755 L kg^− 1 day^− 1; k2, Sequential BCF (G. pulex [2]): 0.123 day^− 1; k2, Simultaneous BCF (G. pulex [2]): 0.303 day^− 1
O=[N+]([O-])c1ccc(CCl)cc1 [4-Nitrobenzyl chloride]	214 L kg^− 1	147 L kg^− 1	259 L kg^− 1 day^− 1	666 L kg^− 1 day^− 1	1.212 day^− 1	4.540 day^− 1	185	–
Nc1ccc(Cl)cc1Cl [2,4-Dichloroaniline]	179 L kg^− 1	50 L kg^− 1	70 L kg^− 1 day^− 1	140 L kg^− 1 day^− 1	0.392 day^− 1	2.830 day^− 1	56	–
COCCc1ccc(OCC(O)CNC(C)C)cc1 (centres unmarked) [Metoprolol, metoprolol]	–	–	–	–	–	–	–	Mean Compound Mass per Animal (G. pulex exoskeleton): 74 pg; Total Mass Compound on exoskeleton (G. pulex exoskeleton): 14 (n=2) pg

— paper PMC4956724, “Assessing the reliability of uptake and elimination kinetics modelling approaches for estimating bioconcentration factors in the freshwater invertebrate, Gammarus pulex” (The Science of the Total Environment, 2016)
